{"source": "ChEMBL document CHEMBL6083251", "about": "“\"Pseudosubstrate Envelope\"/Free Energy Perturbation-Guided Design and Mechanistic Investigations of Benzothiazole HIV Capsid Modulators with High Ligand Efficiency” (J Med Chem, 2024)", "key": {"[1]": {"system": "Human immunodeficiency virus 1", "assay": "Anti-HIV activity against wild type HIV-1 IIIB infected in human MT4 cells assessed as protection against virus-induced cytopathic effect incubated for 5 days by spectrophotometric based MTT assay", "assay_type": "functional, organism-based", "conditions": "Human immunodeficiency virus 1, IIIB, MT4, 120 h"}, "[2]": {"assay": "Selectivity ratio of EC50 for wild type HIV-1 IIIB infected in human MT4 cells to EC50 for HIV-2 ROD infected in human MT-4 cells assessed as protection against virus-induced cytopathic effect incubated for 5 days by spectrophotometric based MTT assay", "assay_type": "functional", "conditions": "time 5 day"}, "MT4": {"system": "MT4", "assay": "Cytotoxicity against human MT4 cells assessed as reduction in cell viability incubated for 5 days by spectrophotometric based MTT assay", "assay_type": "functional", "conditions": "MT4, 120 h, time 5 day"}, "[3]": {"biological_target": "Structural capsid protein (Human immunodeficiency virus 1, UniProt Q76129)", "sequence (Q76129 whole entry)": "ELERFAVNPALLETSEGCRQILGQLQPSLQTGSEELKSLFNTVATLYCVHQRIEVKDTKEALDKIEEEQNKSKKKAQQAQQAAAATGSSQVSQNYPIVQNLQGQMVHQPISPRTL", "assay": "Binding affinity to hexameric HIV-1 NL4.3 capsid protein assessed as dissociation constant by SPR assay"}, "[4]": {"system": "Human immunodeficiency virus 1", "assay": "Antiviral activity against pseudotyped HIV-1 expressing luciferase-reporter transfected in HEK293T cells assessed as viral inhibition at early stage incubated for 48 hrs by Single-round infection assay", "assay_type": "functional, organism-based"}, "[5]": {"biological_target": "Human immunodeficiency virus type 1 reverse transcriptase (Human immunodeficiency virus 1) (UniProt Q72547)", "assay": "Inhibition of HIV1 reverse transcriptase at 6 nM incubated for 1 hr by ELISA analysis"}, "[6]": {"assay": "Half life in male Sprague-Dawley rat at 10 mg/kg, sc measured upto 24 hrs by LC-MS/MS analysis", "assay_type": "ADME, organism-based", "conditions": "in vivo"}, "[7]": {"assay": "Tmax in male Sprague-Dawley rat at 10 mg/kg, sc measured upto 24 hrs by LC-MS/MS analysis", "assay_type": "ADME, organism-based", "conditions": "in vivo"}, "[8]": {"assay": "Cmax in male Sprague-Dawley rat at 2 mg/kg, iv measured upto 24 hrs by LC-MS/MS analysis", "assay_type": "ADME, organism-based", "conditions": "in vivo"}, "[9]": {"assay": "C0 in male Sprague-Dawley rat at 2 mg/kg, iv measured upto 24 hrs by LC-MS/MS analysis", "assay_type": "ADME, organism-based", "conditions": "in vivo"}, "[10]": {"assay": "AUC(0 to t) in male Sprague-Dawley rat at 2 mg/kg, iv measured upto 24 hrs by LC-MS/MS analysis", "assay_type": "ADME, organism-based", "conditions": "in vivo"}, "[11]": {"assay": "AUC(0 to t) in male Sprague-Dawley rat at 10 mg/kg, sc measured upto 24 hrs by LC-MS/MS analysis", "assay_type": "ADME, organism-based", "conditions": "in vivo"}, "[12]": {"assay": "AUC(0 to infinity) in male Sprague-Dawley rat at 2 mg/kg, iv measured upto 24 hrs by LC-MS/MS analysis", "assay_type": "ADME, organism-based", "conditions": "in vivo"}, "[13]": {"assay": "Apparent volume of distribution in male Sprague-Dawley rat at 2 mg/kg, iv measured upto 24 hrs by LC-MS/MS analysis", "assay_type": "ADME, organism-based", "conditions": "in vivo, read-out: Vz"}, "[14]": {"assay": "Clearance in male Sprague-Dawley rat at 2 mg/kg, iv measured upto 24 hrs by LC-MS/MS analysis", "assay_type": "ADME, organism-based", "conditions": "in vivo"}, "[15]": {"assay": "MRT(0 to t) in male Sprague-Dawley rat at 2 mg/kg, iv measured upto 24 hrs by LC-MS/MS analysis", "assay_type": "ADME, organism-based", "conditions": "in vivo"}, "[16]": {"assay": "MRT(0 to t) in male Sprague-Dawley rat at 10 mg/kg, sc measured upto 24 hrs by LC-MS/MS analysis", "assay_type": "ADME, organism-based", "conditions": "in vivo"}, "[17]": {"assay": "MRT(0 to infinity) in male Sprague-Dawley rat at 2 mg/kg, iv measured upto 24 hrs by LC-MS/MS analysis", "assay_type": "ADME, organism-based", "conditions": "in vivo"}, "[18]": {"assay": "MRT(0 to infinity) in male Sprague-Dawley at 10 mg/kg, sc measured upto 24 hrs by LC-MS/MS analysis", "assay_type": "ADME, organism-based", "conditions": "rat, in vivo"}, "[19]": {"biological_target": "Structural capsid protein (Human immunodeficiency virus 1) (UniProt Q76129)", "sequence (Q76129 as listed by the source)": "as the sequence (Q76129 whole entry) above", "assay": "Binding affinity to HIV-1 hexameric capsid protein assessed as reduction in CPSF6 binding to capsid protein by competition assay based SPR analysis", "conditions": "filed as modulator"}, "[20]": {"system": "Human immunodeficiency virus 1", "assay": "Antiviral activity against pseudotyped HIV-1 expressing luciferase-reporter transfected in HEK293T cells assessed as viral inhibition at late stage incubated for 48 hrs by Single-round infection assay", "assay_type": "functional, organism-based"}, "[21]": {"system": "Human immunodeficiency virus 1", "assay": "Antiviral activity against pseudotyped HIV-1 expressing luciferase-reporter transfected in HEK293T cells assessed as increase in p24 level in progeny virions by ELISA analysis", "assay_type": "functional, organism-based"}, "[22]": {"assay": "Metabolic stability in human liver microsomes assessed as half life at 1 uM incubated for 60 mins by LC-MS/MS analysis", "assay_type": "ADME, Microsome"}, "[23]": {"system": "Human immunodeficiency virus 1", "assay": "Induction of HIV-1 CA-NC assessed as capsid assembly at 10 uM by FRET analysis", "conditions": "filed as modulator"}, "[24]": {"assay": "Metabolic stability in human liver microsomes assessed as intrinsic clearance at 1 uM incubated for 60 mins by LC-MS/MS analysis", "assay_type": "ADME, Microsome", "conditions": "read-out: CLH"}, "[25]": {"assay": "Acute toxicity in male Kunming mouse assessed as death at 1000 mg/kg, IG administered via gavage", "assay_type": "organism-based", "conditions": "in vivo, po"}, "[26]": {"assay": "Acute toxicity in male Kunming mouse assessed as sedation at 1000 mg/kg, IG administered via gavage", "assay_type": "organism-based", "conditions": "in vivo, po"}, "[27]": {"assay": "Acute toxicity in male Kunming mouse assessed as anorexia at 1000 mg/kg, IG administered via gavage", "assay_type": "organism-based", "conditions": "in vivo, po"}, "[28]": {"assay": "Acute toxicity in male Kunming mouse assessed as body weight gain at 1000 mg/kg, IG administered via gavage", "assay_type": "organism-based", "conditions": "in vivo, po"}, "[29]": {"assay": "Acute toxicity in female Kunming mouse assessed as death at 1000 mg/kg, IG administered via gavage", "assay_type": "organism-based", "conditions": "in vivo, po"}, "[30]": {"assay": "Acute toxicity in female Kunming mouse assessed as convulsion at 1000 mg/kg, IG administered via gavage", "assay_type": "organism-based", "conditions": "in vivo, po"}, "[31]": {"assay": "Acute toxicity in female Kunming mouse assessed as anorexia at 1000 mg/kg, IG administered via gavage", "assay_type": "organism-based", "conditions": "in vivo, po"}, "[32]": {"assay": "Subacute toxicity in male Kunming mouse assessed as animal death at 50 mg/kg, po administered every other day for 14 days", "assay_type": "organism-based", "conditions": "in vivo, 336 h, time 14 day"}, "[33]": {"assay": "Subacute toxicity in male Kunming mouse assessed as tremor at 50 mg/kg, po administered every other day for 14 days", "assay_type": "organism-based", "conditions": "in vivo, 336 h, time 14 day"}, "[34]": {"assay": "Subacute toxicity in male Kunming mouse assessed as convulsion at 50 mg/kg, po administered every other day for 14 days", "assay_type": "organism-based", "conditions": "in vivo, 336 h, time 14 day"}, "[35]": {"assay": "Subacute toxicity in male Kunming mouse assessed as body jerks at 50 mg/kg, po administered every other day for 14 days", "assay_type": "organism-based", "conditions": "in vivo, 336 h, time 14 day"}, "[36]": {"assay": "Subacute toxicity in male Kunming mouse assessed as piloerection at 50 mg/kg, po administered every other day for 14 days", "assay_type": "organism-based", "conditions": "in vivo, 336 h, time 14 day"}, "[37]": {"assay": "Subacute toxicity in male Kunming mouse assessed as scattered lymphocyte infiltration in heart at 50 mg/kg, po administered every other day for 14 days by H and E staining based analysis", "assay_type": "organism-based", "conditions": "in vivo, 336 h, time 14 day"}, "[38]": {"assay": "Subacute toxicity in male Kunming mouse assessed as focal lymphocyte infiltration in liver at 50 mg/kg, po administered every other day for 14 days by H and E staining based analysis", "assay_type": "organism-based", "conditions": "in vivo, 336 h, time 14 day"}, "[39]": {"assay": "Subacute toxicity in male Kunming mouse assessed as pathological damage in spleen at 50 mg/kg, po administered every other day for 14 days by H and E staining based analysis", "assay_type": "organism-based", "conditions": "in vivo, 336 h, time 14 day"}, "[40]": {"assay": "Subacute toxicity in male Kunming mouse assessed as pathological damage in lungs at 50 mg/kg, po administered every other day for 14 days by H and E staining based analysis", "assay_type": "organism-based", "conditions": "in vivo, 336 h, time 14 day"}, "[41]": {"assay": "Subacute toxicity in male Kunming mouse assessed as pathological damage in kidney at 50 mg/kg, po administered every other day for 14 days by H and E staining based analysis", "assay_type": "organism-based", "conditions": "in vivo, 336 h, time 14 day"}}, "note": "Calls of active or inactive are those of the source. The rule behind the calls is not given here.", "data": [{"smiles": "CN(C(=O)[C@H](Cc1cc(F)cc(F)c1)NC(=O)Cc1c[nH]c2ccc(O)cc12)c1ccc2scnc2c1", "values": [{"measurement": "EC50", "setting": "[1]", "result": 2.69, "unit": "nM"}, {"measurement": "Ratio EC50", "setting": "[2]", "result": 0.03}, {"measurement": "CC50", "setting": "MT4", "result": 133000, "unit": "nM"}, {"measurement": "Kd", "setting": "[3]", "result": 24.6, "unit": "nM"}, {"measurement": "Activity", "setting": "[4]", "result": "Active"}, {"measurement": "inhibition", "setting": "[5]", "result": "inactive"}, {"measurement": "half-life", "setting": "[6]", "result": 3.66, "unit": "h"}, {"measurement": "Tmax", "setting": "[7]", "result": 1.33, "unit": "h"}, {"measurement": "Cmax", "setting": "[8]", "result": 18.8, "unit": "ng/mL"}, {"measurement": "C0 at 24 h", "setting": "[9]", "result": 33.7, "unit": "ng/mL"}, {"measurement": "AUC(0-t) at 24 h", "setting": "[10]", "result": 5.53, "unit": "ng·h/mL"}, {"measurement": "AUC(0-t) at 24 h", "setting": "[11]", "result": 23.3, "unit": "ng·h/mL"}, {"measurement": "AUC(0-inf)", "setting": "[12]", "result": 7.77, "unit": "ng·h/mL"}, {"measurement": "Vd", "setting": "[13]", "result": 72.9, "unit": "L/kg"}, {"measurement": "CL", "setting": "[14]", "result": 4712.52, "unit": "mL/min/kg"}, {"measurement": "MRT last at 24 h", "setting": "[15]", "result": 7.74, "unit": "min"}, {"measurement": "MRT last at 24 h", "setting": "[16]", "result": 3.04, "unit": "h"}, {"measurement": "MRT inf", "setting": "[17]", "result": 0.201, "unit": "h"}, {"measurement": "MRT inf", "setting": "[18]", "result": 5.85, "unit": "h"}, {"measurement": "Activity", "setting": "[19]", "result": "Active"}, {"measurement": "Activity", "setting": "[20]", "result": "Active"}, {"measurement": "Activity", "setting": "[21]", "result": "Active"}, {"measurement": "half-life at 1 µM", "setting": "[22]", "result": 1.52, "unit": "h"}, {"measurement": "Activity", "setting": "[23]", "result": "Active"}, {"measurement": "CLint scaled at 1 µM", "setting": "[24]", "result": 15.2, "unit": "mL/min/kg"}, {"measurement": "Activity", "setting": "[25]", "result": "Non-toxic"}, {"measurement": "Activity", "setting": "[26]", "result": "Non-toxic"}, {"measurement": "Activity", "setting": "[27]", "result": "Non-toxic"}, {"measurement": "Activity", "setting": "[28]", "result": "Non-toxic"}, {"measurement": "Activity", "setting": "[29]", "result": "Non-toxic"}, {"measurement": "Activity", "setting": "[30]", "result": "Non-toxic"}, {"measurement": "Activity", "setting": "[31]", "result": "Non-toxic"}, {"measurement": "Activity", "setting": "[32]", "result": "Non-toxic"}, {"measurement": "Activity", "setting": "[33]", "result": "Non-toxic"}, {"measurement": "Activity", "setting": "[34]", "result": "Non-toxic"}, {"measurement": "Activity", "setting": "[35]", "result": "Non-toxic"}, {"measurement": "Activity", "setting": "[36]", "result": "Non-toxic"}, {"measurement": "Activity", "setting": "[37]", "result": "Non-toxic"}, {"measurement": "Activity", "setting": "[38]", "result": "Toxic"}, {"measurement": "Activity", "setting": "[39]", "result": "Non-toxic"}, {"measurement": "Activity", "setting": "[40]", "result": "Non-toxic"}, {"measurement": "Activity", "setting": "[41]", "result": "Non-toxic"}]}]}
